Data set [1] relates to human non-small cell lung cancer A549 cells. The data set is described as follows: Inhibitory action on the proliferation of A549 cells. It counts as cell-based. To be noted: 96 hours, TetraColor ONE; for IC50: Homo sapiens, A549. The procedure, abridged: (§1)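 Cells seeded overnight (SW480 2000/well in 10% FBS/RPMI1640; A549, HT-29 1000/well in 10% FBS DMEM or DMEM F12 HAM), then compound-treated at 37 °C, 5% CO2 for 48 h (SW480) or 96 h (A549, HT-29). Viable cells counted by TetraColor ONE; IC50 for 50% proliferation inhibition.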

In data set [2] the test system is human colon cancer HT-29 cells. The data set is described as follows: Inhibitory action on the proliferation of HT-29 cells. To be noted: 96 hours, TetraColor ONE; for IC50: Homo sapiens, HT-29. It counts as cell-based. The procedure, abridged: as §1
The test system of data set [3] is mouse fibrosarcoma Meth A cells. The data set is described as follows: Antitumor effect in mice transplanted with mouse fibrosarcoma Meth A cells. It counts as in vivo. To be noted: intravenous on days 1, 5, 9, tumor weight day 21, BALB/c mice. The method, then: The antitumor effect of the phenanthroindolizidine alkaloid compound of the present invention in vivo was studied using mice transplanted with mouse fibrosarcoma Meth A cells. Meth A cells were transplanted subcutaneously in the inguinal region of male 7-week-old BALB/c mice (2.5×10^5 cells/mouse). Subsequently, on days 1, 5, and 9, the compound of the present invention was intravenously administered. To a control group, physiological saline, a solvent, was administered. On day 21 after the cell transplantation, tumor was excised and measured for its weight, and subsequently a tumor growth-inhibition rate IR (%) was obtained by the following formula. Tumor growth-inhibition rate IR (%)=(1−the weight of the tumor in an administration group/the weight of the tumor in a control group)×100

A further data set concerns SV40 promoter. The data set is described as follows: SV40 promoter activity, luciferase assay in SW480/SV40-Luc cells. It counts as cell-based, human. To be noted: for SV40 promoter inhibitory activity IC50: SW480/SV40-Luc cells, luciferase; for IC50: Homo sapiens, SW480, read-out: SV40 promoter inhibitory activity IC50. The procedure, abridged: (§2)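 Stable SW480 colon cancer lines carried luciferase driven by a 5× NFκB response element or by the SV40 promoter. Compound was added 1 h before 50 ng/mL TNFα, followed by 4 h culture at 37 °C; luminescence was read and IC50 taken as 50% inhibition of induced luciferase expression.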

Data set [4] deals with human colon cancer SW480 cells. The data set is described as follows: Inhibitory action on the proliferation of SW480 cells. The class given is cell-based. To be noted: 48 hours, TetraColor ONE; for IC50: Homo sapiens, SW480. Put shortly:
as §1

In another data set the test system is NFκB. The data set is described as follows: Inhibitory action on the NFκB activity, luciferase assay in SW480/NRE-Luc cells. It counts as cell-based, human. The following applies: for NFκB inhibitory activity IC50: SW480/NRE-Luc cells, compound 1 h then 50 ng/mL TNFα 4 h, luciferase; for IC50: Homo sapiens, SW480, read-out: NFκB inhibitory activity IC50. Put shortly:
as §2

Data set [5] has as its system mice transplanted with mouse fibrosarcoma Meth A cells. The data set is described as follows: Animal toxicity test. The class given is in vivo. The following applies: intravenous days 1, 5, 9, observed three weeks. As for the experimental part:
Also, the toxicity of known phenanthroindolizidine alkaloid compounds, namely (12aS,13S)-6,7-dimethoxy-9,10,11,12,12a,13-hexahydro-9a-aza-cyclopenta[b]triphenylene-3,13-diol (known compound 1; refer to WO01/023384) and (12aS,13S)-3,6,7-trimethoxy-9,10,11,12,12a,13-hexahydro-9a-aza-cyclopenta[b]triphenylene-13-ol (known compound 2; refer to Planta Med., 2002, 68: 186-188), was simultaneously studied. To a control group, a physiological saline solution, a solvent, was administered. As a result, as shown in the following Tables 35 and 36, all the mice survived in a group administered with the compound of the present invention.

Another data set in a line: Solubility of the salts. The following applies: aqueous solution of 5% glucose, saline or isotonic. An excerpt:
In in vivo studies, each compound was used in the form of a salt.

The test system of data set [6] is human colon cancer HCT116 cells. The data set is described as follows: Antitumor effect in mice transplanted with human colon cancer HCT116 cells. The following applies: intraperitoneal days 1-5 and 8-12, tumor weight day 21, BALB/c nude mice. The class given is in vivo, mouse. From the text:
The antitumor effect of the phenanthroindolizidine alkaloid compound of the present invention in vivo was studied using mice transplanted with human colon cancer HCT116 cells. HCT116 cells were transplanted subcutaneously in the inguinal region of male 6-week-old BALB/c nude mice (2×10^6 cells/mouse). On days 1 to 5 and on days 8 to 12 after the time at which the estimated tumor volume obtained by ½ab^2 (a and b indicate the major axis and the minor axis of tumor, respectively) reached approximately 100 mm^3 (day 0), the compound of the present invention was administered (intraperitoneal administration). To a control group, a 5% glucose solution, a solvent, was administered. On day 21, tumor was excised and measured for its weight, and subsequently a tumor proliferation-inhibition rate IR (%) was calculated.

Marks after values point to notes of the source that are not given here.

The term IC50 denotes the concentration needed to halve the response being measured. As usually defined, the solubility is how much of the substance goes into solution per volume.

On to `COC(=O)CCC(=O)Oc1ccc2c3c(c4cc(OC)c(OC)cc4c2c1)CN1CCC[C@H]1[C@H]3O.Cl` [Compound 16, succinic acid(12aS,13S)-13-hydroxy-6,7-dimethoxy-9,10,11,12,12a,13-hexahydro-9a-aza-cyclopenta[b]triphenylene-3-yl ester methyl ester hydrochloride], for which the “A549 proliferation inhibitory action IC50” value in data set [1] turned out to be 0.59 ng/mL. Also, the “HT-29 proliferation inhibitory action IC50” value in data set [2] is 0.17 ng/mL. The “Tumor growth inhibition rate IR” value is on record as 48.8* % in data set [3] (total dose 25 mg/kg) and 39.1% in data set [3] (total dose 50 mg/kg). Further, in the data set with SV40 promoter, the “SV40 promoter inhibitory activity IC50” value was above 100 ng/mL. In addition, in [4], the “SW480 proliferation inhibitory action IC50” value is given as 0.76 ng/mL. The “NFκB inhibitory activity IC50” value in the data set with NFκB is on record as 0.37 ng/mL.
Turning to `COC(=O)Oc1ccc2c3c(c4cc(OC)c(OC)cc4c2c1)CN1CCC[C@H]1[C@H]3O.Cl` [Compound 17, carbonic acid(12aS,13S)-13-hydroxy-6,7-dimethoxy-9,10,11,12,12a,13-hexahydro-9a-aza-cyclopenta[b]triphenylene-3-yl ester methyl ester hydrochloride], the “A549 proliferation inhibitory action IC50” value in data set [1] is 0.53 ng/mL. Also, the “HT-29 proliferation inhibitory action IC50” value in [2] is on record as 0.067 ng/mL. The “Tumor growth inhibition rate IR” value in [3] (total dose 25 mg/kg) was 54.2* %; in data set [3] (total dose 50 mg/kg) it was 50.0%. Further, the “SV40 promoter inhibitory activity IC50” value in the data set with SV40 promoter is reported as above 100 ng/mL. Besides, in [4], the “SW480 proliferation inhibitory action IC50” value was found to be 0.63 ng/mL. In the data set on NFκB, the “NFκB inhibitory activity IC50” value amounted to 0.83 ng/mL.
For `COc1cc2c3c(c4ccc(OC(=O)c5ccco5)cc4c2cc1OC)[C@H](O)[C@@H]1CCCN1C3.Cl` [Compound 20, furan-2-carboxylic acid(12aS,13S)-13-hydroxy-6,7-dimethoxy-9,10,11,12,12a,13-hexahydro-9a-aza-cyclopenta[b]triphenylene-3-yl ester hydrochloride], the “A549 proliferation inhibitory action IC50” value in data set [1] was found to be 0.42 ng/mL. The “HT-29 proliferation inhibitory action IC50” value in [2] is 0.76 ng/mL. Further, the entries for the “Tumor growth inhibition rate IR” value in data set [3] (total dose 25 mg/kg) and in [3] (total dose 50 mg/kg) were 36.7% and 53.0* %, respectively. Moreover, the Mortality rate in data set [5] (total dose 25 mg/kg) and in data set [5] (total dose 50 mg/kg) was 0/5 each time. Also, the “SV40 promoter inhibitory activity IC50” value in the data set with SV40 promoter is recorded as above 100 ng/mL. Also, the “SW480 proliferation inhibitory action IC50” value in [4] is 0.67 ng/mL. Also, the “NFκB inhibitory activity IC50” value in the data set with NFκB was found to be 0.46 ng/mL.
In the case of `COC(=O)Oc1ccc2c3c(c4cc(OC)c(OC)cc4c2c1)CN1CCC[C@H]1C3.Cl` [Compound 37, carbonic acid(S)-6,7-dimethoxy-9,10,11,12,12a,13-hexahydro-9a-aza-cyclopenta[b]triphenylene-3-yl ester methyl ester hydrochloride], the “A549 proliferation inhibitory action IC50” value in [1] amounted to 0.65 ng/mL. In addition, the “HT-29 proliferation inhibitory action IC50” value in data set [2] came to 1.6 ng/mL. Moreover, the Mortality rate in data set [5] (total dose 25 mg/kg) and in [5] (total dose 50 mg/kg) was 0/5 throughout. Further, the “SV40 promoter inhibitory activity IC50” value in the data set on SV40 promoter is above 100 ng/mL. Also, the “SW480 proliferation inhibitory action IC50” value in data set [4] is 0.68 ng/mL. The “NFκB inhibitory activity IC50” value in the data set with NFκB was found to be 2.9 ng/mL.
As for `COc1cc2c3c(c4ccc(OC(=O)c5ccco5)cc4c2cc1OC)C[C@@H]1CCCN1C3.Cl` [Compound 38, furan-2-carboxylic acid(S)-6,7-dimethoxy-9,10,11,12,12a,13-hexahydro-9a-aza-cyclopenta[b]triphenylene-3-yl ester hydrochloride], in data set [1], the “A549 proliferation inhibitory action IC50” value is on record as 1.1 ng/mL. Also, the “HT-29 proliferation inhibitory action IC50” value in data set [2] was determined as 3.2 ng/mL. Moreover, the Mortality rate in data set [5] (total dose 25 mg/kg) and in data set [5] (total dose 50 mg/kg) was 0/5 throughout. Moreover, the “SV40 promoter inhibitory activity IC50” value with SV40 promoter is recorded as above 1000 ng/mL. For the same compound, the “SW480 proliferation inhibitory action IC50” value in data set [4] was 0.62 ng/mL. Moreover, the “NFκB inhibitory activity IC50” value with NFκB came out at 0.50 ng/mL.
For `COc1cc2c3c(c4ccc(OC(=O)c5cccnc5)cc4c2cc1OC)C[C@@H]1CCCN1C3.Cl` [Compound 39, nicotinic acid(S)-6,7-dimethoxy-9,10,11,12,12a,13-hexahydro-9a-aza-cyclopenta[b]triphenylene-3-yl ester hydrochloride], the “A549 proliferation inhibitory action IC50” value in [1] is reported as 0.97 ng/mL. The “HT-29 proliferation inhibitory action IC50” value in data set [2] is 2.6 ng/mL. In addition, the Mortality rate in [5] (total dose 25 mg/kg) and in data set [5] (total dose 50 mg/kg) was 0/5 each time. Further, the “SV40 promoter inhibitory activity IC50” value in the data set with SV40 promoter is above 100 ng/mL. Also, the “SW480 proliferation inhibitory action IC50” value in [4] is given as 1.3 ng/mL. Also, the “NFκB inhibitory activity IC50” value with NFκB is 2.2 ng/mL.
Consider `COc1cc2c3c(c4cccc(O)c4c2cc1OC)C[C@@H]1CCCN1C3.Cl` [Compound 40, (S)-6,7-dimethoxy-9,10,11,12,12a,13-hexahydro-9a-aza-cyclopenta[b]triphenylene-4-ol hydrochloride], for which the IC50 in [1] is 3.3 ng/mL; in data set [2], 67.9 ng/mL; in the data set with SV40 promoter it was above 1000 ng/mL; in data set [4], 4 ng/mL; in the data set with NFκB, 2.4 ng/mL. The results for the “Tumor growth inhibition rate IR” value in [3] (total dose 25 mg/kg) and in data set [3] (total dose 50 mg/kg) were 25.8% and 45.1* %, respectively. Besides, the Mortality rate in data set [5] (total dose 25 mg/kg) and in data set [5] (total dose 50 mg/kg) was 0/5 throughout.
As to `COc1cc2c3c(c4cccc(O)c4c2cc1OC)[C@H](O)[C@@H]1CCCN1C3.CS(=O)(=O)O` [Compound 43, (12aS,13S)-6,7-dimethoxy-9,10,11,12,12a,13-hexahydro-9a-aza-cyclopenta[b]triphenylene-4,13-diol methanesulfonate], the IC50 in data set [1] was 4.4 ng/mL; in [2] it was 100 ng/mL; in the data set with SV40 promoter, above 1000 ng/mL; in data set [4], 6.2 ng/mL; in the data set with NFκB, 2.7 ng/mL. The solubility in the data set “Solubility of the salts” was determined as 11.2 mg/mL.
In the case of `COC(=O)CCC(=O)Oc1ccc2c3c(c4cc(OC)c(OC)cc4c2c1)CN1CCC[C@H]1C3.CS(=O)(=O)O` [Compound 46, succinic acid(S)-6,7-dimethoxy-9,10,11,12,12a,13-hexahydro-9a-aza-cyclopenta[b]triphenylene-3-yl ester methyl ester methanesulfonate], the “A549 proliferation inhibitory action IC50” value in [1] is on record as 1.2 ng/mL. Also, the “HT-29 proliferation inhibitory action IC50” value in [2] was 2.1 ng/mL. The “SV40 promoter inhibitory activity IC50” value in the data set with SV40 promoter was above 1000 ng/mL. In data set [4], the “SW480 proliferation inhibitory action IC50” value came to 0.36 ng/mL. Moreover, the “NFκB inhibitory activity IC50” value in the data set on NFκB came to 0.13 ng/mL. For the same compound, in data set [6] (total dose 200 mg/kg), the “Tumor growth inhibition rate IR” value is 34.6** %.
As to `COc1cc2c3c(c4ccc(NC(C)=O)cc4c2cc1OC)C[C@@H]1CCCN1C3.CS(=O)(=O)O` [Compound 56, N-((S)-6,7-dimethoxy-9,10,11,12,12a,13-hexahydro-9a-aza-cyclopenta[b]triphenylene-3-yl)-acetamide methanesulfonate], the IC50 in data set [1] is 2.2 ng/mL; in [2] it was 2.4 ng/mL; with SV40 promoter it was above 10 ng/mL; in [4] it was 4.8 ng/mL; with NFκB, 2.9 ng/mL. Also, the “Tumor growth inhibition rate IR” value is recorded as 39.1** % in [6] (total dose 50 mg/kg) and 68.9** % in [6] (total dose 100 mg/kg).
